Laboratory results reported in publication PMC6680430, “Quantitative Prediction of Human Pharmacokinetics and Pharmacodynamics of CKD519, a Potent Inhibitor of Cholesteryl Ester Transfer Protein (CETP)” (Pharmaceutics, 2019).

How the values were obtained:
[1] = overall (interspecies) PK model with allometric relationships; type: in vivo, hamster, rat, monkey; details: for θ3 Coefficient for Vc: Vc = θ3 × WT^θ4 (θ4 fixed 1); for θ7 Coefficient for Vp: Vp = θ7 × WT^θ8 (θ8 fixed 1)
From the text: (§1) The volume parameters (Vc, Vp) estimated from the PK models for three different species were correlated through simple allometric scaling (=Body weight-dependent allometry) in the PK model fitted to the overall data from all species. This method is based on the power–law function, which can be represented as follows:Y = a × BW^b,(2) where Y represents the PK parameter of interest from each animal; BW represents the average body weight of each species from the relevant in vivo studies; and a and b are the allometric coefficient and exponent of the equation, respectively.
(§2) For the allometric scaling of the clearance parameters (CL, Q) in the same model, physiological parameters such as brain weight (BrW) or maximum lifespan potential (MLP) of each species were incorporated if necessary. To address the uncertainty, two allometric relationships were selected as the final models, and two sets of human PK parameters were predicted: one from the allometry of best fit and the other from the most conventional simple allometry. The appropriateness of the extrapolated human PK parameter values was assessed by comparing them with those of the comparator. Since allometric scaling is not generally recommended for the absorption parameter, human absorption parameters were determined by the final estimates from the overall PK model instead of the allometric method.
The final allometric relationship used in the overall PK model is as follows:Parameter value in each species = a × BW^b (for volume parameters, Vc and Vp),(9) Parameter value in each species = a × BW^b/BrW (for clearance parameters, CL and Q),(10) where BrW and BW represent the average brain weight and body weight of each species, respectively, and a and b are the coefficient and exponent of the allometric relationship, respectively.
The GOF plots of the final PK model are shown in Figure 3 The final parameter estimates from the overall PK model, and the precision of parameter estimates assessed by the bootstrap method are shown in Table 5.

[2] = human PK parameter prediction by allometric scaling; details: 60 kg human
From the text: as §1, §2
As mentioned in Section 2.4, predicted human (with the body weight of 60 kg) PK parameter values were obtained using the simple and BrW-corrected (the best fit) allometric relationships and the final estimates for allometric coefficient and exponent in overall PK models.

[3] = absolute bioavailability from first-in-human study (observed oral AUC vs predicted intravenous AUC); type: in vivo; details: AUC ratio observed oral / predicted intravenous
From the text: The absolute bioavailability was estimated for each dose (Table 7) by comparing the AUC of the observed oral PK profile in the first-in-human study and that of the predicted human i.v. PK profile from animal PK data. […] Even though the trends were similar, absolute bioavailability estimated by the observed PK profile was less than one-fifth of the predicted bioavailability using the animal PK data. […] Delayed absorption was also found, and the difference in formulation between animals and humans was considered to have caused the delay by affecting the absorption rate. Simulated AUC, Cmax, and Tmax were within 2-folds, the range that is generally accepted for animal-to-human predictions.

[4] = molecular target: T1, cholesteryl ester transfer protein (CETP) (Homo sapiens, UniProt P11597); experiment: in vitro potency, CETP inhibition (in-house data); details: read-out: IC50 (in vitro potency)
T1 sequence (P11597 18-493): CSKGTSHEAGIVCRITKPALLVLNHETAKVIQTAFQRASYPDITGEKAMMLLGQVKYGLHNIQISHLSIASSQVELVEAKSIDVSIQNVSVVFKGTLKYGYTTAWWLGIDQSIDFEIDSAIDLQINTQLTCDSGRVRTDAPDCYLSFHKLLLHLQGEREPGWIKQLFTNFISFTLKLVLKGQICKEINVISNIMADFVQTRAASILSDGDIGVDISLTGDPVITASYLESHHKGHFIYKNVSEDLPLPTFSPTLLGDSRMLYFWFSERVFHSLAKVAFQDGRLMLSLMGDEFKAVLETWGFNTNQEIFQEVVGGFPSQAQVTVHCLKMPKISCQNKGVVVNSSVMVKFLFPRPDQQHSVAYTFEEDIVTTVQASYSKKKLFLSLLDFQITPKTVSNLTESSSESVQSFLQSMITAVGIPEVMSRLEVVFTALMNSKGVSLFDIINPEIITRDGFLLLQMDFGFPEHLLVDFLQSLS

[5] = brain weight-corrected, estimate
[6] = brain weight-corrected allometry

COc1cc(F)c(C(C)C)cc1C1=C(CN2C(=O)O[C@H](c3cc(C(F)(F)F)cc(C(F)(F)F)c3)[C@@H]2C)CC(C)(C)CC1 [CKD519]
θ5 Coefficient for Q ([1]; brain weight-corrected, Q = θ5 × WT^θ6/BrW, estimate): 0.846 | θ3 Coefficient for Vc [1, 5]: 0.0735 | θ7 Coefficient for Vp [1, 5]: 0.813 | α Scale parameter of WB [1, 5]: 4.51 | β Shape parameter of WB [1, 5]: 3.11 | θ6 Exponent of Q [1, 5]: 2.04 | ωCL Interindividual variability of CL [1, 5]: 25.9% | ωQ Interindividual variability of Q [1, 5]: 60.8% | ωα Interindividual variability of α [1, 5]: 27.0% | ωβ Interindividual variability of β [1, 5]: 24.0% | θ5 Coefficient for Q ([1]; simple allometry, Q = θ5 × WT^θ6, estimate): 0.0549 | θ3 Coefficient for Vc ([1]; simple allometry, estimate): 0.0755 | θ7 Coefficient for Vp ([1]; simple allometry, estimate): 0.829 | α Scale parameter of WB ([1]; simple allometry, estimate): 4.50 | β Shape parameter of WB ([1]; simple allometry, estimate): 3.01 | θ6 Exponent of Q ([1]; simple allometry, estimate): 0.670 | ωCL Interindividual variability of CL ([1]; simple allometry, estimate): 42.8% | ωQ Interindividual variability of Q ([1]; simple allometry, estimate): 23.9% | ωα Interindividual variability of α ([1]; simple allometry, estimate): 27.1% | ωβ Interindividual variability of β ([1]; simple allometry, estimate): 65.7% | CL, predicted human [2, 6]: 0.777 L/h | F 50, predicted human [2, 6]: 10.6 | F max, predicted human [2, 6]: 0.192 | Q, predicted human [2, 6]: 2.39 L/h | Vc, predicted human [2, 6]: 4.41 L | Vp, predicted human [2, 6]: 48.8 L | α, predicted human [2, 6]: 4.51 | β, predicted human [2, 6]: 3.11 | CL, predicted human ([2]; simple allometry): 0.264 L/h | F 50, predicted human ([2]; simple allometry): 10.6 | F max, predicted human ([2]; simple allometry): 0.192 | Q, predicted human ([2]; simple allometry): 1.17 L/h | Vc, predicted human ([2]; simple allometry): 3.29 L | Vp, predicted human ([2]; simple allometry): 49.7 L | α, predicted human ([2]; simple allometry): 4.51 | β, predicted human ([2]; simple allometry): 3.11 | Absolute Bioavailability ([3]; oral dose 25 mg): 0.0362 | Absolute Bioavailability ([3]; oral dose 50 mg): 0.0321 | Absolute Bioavailability ([3]; oral dose 100 mg): 0.0191 | Absolute Bioavailability ([3]; oral dose 200 mg): 0.0140 | Absolute Bioavailability ([3]; oral dose 400 mg): 0.00814 | IC50 [4]: 2.3 nM
